What was measured:
Format in all cases: in vivo
[1] = system: redroot pigweed (Amaranthus retroflexus, AMARE); assay: Post-emerge test, greenhouse herbicide activity screening; conditions: post-emerge, 14 days after application
How it was run: (§1)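 Plants grown in 10 cm pots of sandy loam mix received acetone-dissolved compounds through a moving flat-fan nozzle. Doses ranged from 15 to 1000 g ai/ha. Pre-emerge pots were seeded one day earlier, post-emerge pots 8–21 days earlier. Fourteen days on, each pot was graded 0–100 for damage.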

[2] = system: ivyleaf morningglory (Ipomoea hederacea, IPOHE); assay: as above; conditions: post-emerge, 14 days after application, rating scale 0-100
How it was run: as §1

[3] = system: barnyardgrass (Echinochloa crus-galli, ECHCG); assay: as above; conditions: post-emerge, 14 days after application, rating scale 0-100
How it was run: as §1

[4] = system: sicklepod (Cassia obtusifolia, CASOB); assay: as above; conditions: post-emerge, 14 days after application, rating scale 0-100
How it was run: as §1

[5] = system: johnsongrass (Sorghum halepense, SORHA); assay: as above; conditions: post-emerge, 14 days after application, rating scale 0-100
How it was run: as §1

[6] = system: velvetleaf (Abutilon theophrasti, ABUTH); assay: as above; conditions: post-emerge, 14 days after application, rating scale 0-100
How it was run: as §1

[7] = system: green foxtail (Setaria viridis, SETVI); assay: as above; conditions: post-emerge, 14 days after application, rating scale 0-100
How it was run: as §1

[8] = system: lambsquarters (Chenopodium album, CHEAL); assay: as above; conditions: post-emerge, 14 days after application, rating scale 0-100
How it was run: as §1

[9] = system: large crabgrass (Digitaria sanguinalis, DIGSA); assay: as above; conditions: post-emerge, 14 days after application, rating scale 0-100
How it was run: as §1

[10] = system: redroot pigweed (Amaranthus retroflexus, AMARE); assay: Pre-emerge test, greenhouse herbicide activity screening; conditions: for phytotoxicity rating AMARE: pre-emerge, 14 days after application, scale 0-100; for Pre-emerge Herbicidal Activity AMARE: phytotoxicity rating 0-100, 14 days after application
How it was run: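 Herbicidal damage is scored 0 (none) to 100 (complete plant death) two weeks after a simulated field spray. Rates span 15–1000 g ai/ha, delivered in acetone at 187 l/ha. For post-emergence treatments, plants have 2–3 leaves and the spray carries 0.25% v/v non-ionic surfactant.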

[11] = system: field corn (Zea mays L., var. Dekalb 535, CORN); assay: Pre-emerge test, crop safety; conditions: for phytotoxicity rating CORN (crop damage): pre-emerge, 14 days after application, scale 0-100; for Pre-emerge Herbicidal Activity CORN: crop damage rating 0-100, 14 days after application
How it was run: (§2)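 Sandy loam pots; pre-emerge: sown 1 d pre-spray, surface-watered after, then bottom-watered. Post-emerge: sown 8–21 d before, 2–3 leaf stage, + 0.25% v/v NIS, bottom-watered. Acetone, 187 l/ha track spray, 15–1000 g ai/ha. 0–100 injury score, day 14.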

[12] = system: upland rice (Oryza sp., var. Tebonnet, RICE); assay: Pre-emerge test, crop safety; conditions: for phytotoxicity rating RICE (crop damage): pre-emerge, 14 days after application, scale 0-100; for Pre-emerge Herbicidal Activity RICE: crop damage rating 0-100, 14 days after application
How it was run: as §2

[13] = system: field corn (Zea mays L., var. Dekalb 535, CORN); assay: Post-emerge test, crop safety; conditions: post-emerge, 14 days after application, rating scale 0-100
How it was run: as §2

[14] = system: upland rice (Oryza sp., var. Tebonnet, RICE); assay: Post-emerge test, crop safety; conditions: post-emerge, 14 days after application, rating scale 0-100
How it was run: as §2

[15] = system: common ragweed (Ambrosia artemisizfolia L., AMBEL); assay: Pre-emerge test, greenhouse herbicide activity screening; conditions: for phytotoxicity rating AMBEL: pre-emerge, 14 days after application, scale 0-100; for Pre-emerge Herbicidal Activity AMBEL: phytotoxicity rating 0-100, 14 days after application
How it was run: as §2

[16] = system: ivyleaf morningglory (Ipomoea hederacea, IPOHE); assay: as above; conditions: for phytotoxicity rating IPOHE: pre-emerge, 14 days after application, scale 0-100; for Pre-emerge Herbicidal Activity IPOHE: phytotoxicity rating 0-100, 14 days after application
How it was run: as §2

[17] = system: barnyardgrass (Echinochloa crus-galli, ECHCG); assay: as above; conditions: for phytotoxicity rating ECHCG: pre-emerge, 14 days after application, scale 0-100; for Pre-emerge Herbicidal Activity ECHCG: phytotoxicity rating 0-100, 14 days after application
How it was run: as §2

[18] = system: sicklepod (Cassia obtusifolia, CASOB); assay: as above; conditions: for phytotoxicity rating CASOB: pre-emerge, 14 days after application, scale 0-100; for Pre-emerge Herbicidal Activity CASOB: phytotoxicity rating 0-100, 14 days after application
How it was run: as §2

[19] = system: johnsongrass (Sorghum halepense, SORHA); assay: as above; conditions: for phytotoxicity rating SORHA: pre-emerge, 14 days after application, scale 0-100; for Pre-emerge Herbicidal Activity SORHA: phytotoxicity rating 0-100, 14 days after application
How it was run: as §2

[20] = system: velvetleaf (Abutilon theophrasti, ABUTH); assay: as above; conditions: for phytotoxicity rating ABUTH: pre-emerge, 14 days after application, scale 0-100; for Pre-emerge Herbicidal Activity ABUTH: phytotoxicity rating 0-100, 14 days after application
How it was run: as §2

[21] = system: green foxtail (Setaria viridis, SETVI); assay: as above; conditions: for phytotoxicity rating SETVI: pre-emerge, 14 days after application, scale 0-100; for Pre-emerge Herbicidal Activity SETVI: phytotoxicity rating 0-100, 14 days after application
How it was run: as §2

[22] = system: lambsquarters (Chenopodium album, CHEAL); assay: as above; conditions: for phytotoxicity rating CHEAL: pre-emerge, 14 days after application, scale 0-100; for Pre-emerge Herbicidal Activity CHEAL: phytotoxicity rating 0-100, 14 days after application
How it was run: as §2

[23] = system: large crabgrass (Digitaria sanguinalis, DIGSA); assay: as above; conditions: for phytotoxicity rating DIGSA: pre-emerge, 14 days after application, scale 0-100; for Pre-emerge Herbicidal Activity DIGSA: phytotoxicity rating 0-100, 14 days after application
How it was run: as §2

[24] = 250 g ai/ha, rating scale 0-100

CCCSCC(=O)Nc1c(OC)c(Cl)cc(F)c1-n1c(=O)cc(C(F)(F)F)n(C)c1=O [2-174]
AMARE phytotoxicity rating ([1]; 63 g ai/ha, rating scale 0-100): 60 | AMARE phytotoxicity rating [1, 24]: 60 | IPOHE phytotoxicity rating ([2]; 63 g ai/ha): 70 | IPOHE phytotoxicity rating ([2]; 250 g ai/ha): 80 | ECHCG phytotoxicity rating ([3]; 63 g ai/ha): 0 | ECHCG phytotoxicity rating ([3]; 250 g ai/ha): 0 | CASOB phytotoxicity rating ([4]; 63 g ai/ha): 60 | CASOB phytotoxicity rating ([4]; 250 g ai/ha): 75 | SORHA phytotoxicity rating ([5]; 63 g ai/ha): 0 | SORHA phytotoxicity rating ([5]; 250 g ai/ha): 0 | ABUTH phytotoxicity rating ([6]; 63 g ai/ha): 60 | ABUTH phytotoxicity rating ([6]; 250 g ai/ha): 80 | SETVI phytotoxicity rating ([7]; 63 g ai/ha): 10 | SETVI phytotoxicity rating ([7]; 250 g ai/ha): 10 | CHEAL phytotoxicity rating ([8]; 63 g ai/ha): 55 | CHEAL phytotoxicity rating ([8]; 250 g ai/ha): 85 | DIGSA phytotoxicity rating ([9]; 63 g ai/ha): 0 | DIGSA phytotoxicity rating ([9]; 250 g ai/ha): 10 | phytotoxicity rating AMARE ([10]; 63 g ai/ha): 90 | phytotoxicity rating AMARE ([10]; 250 g ai/ha): 100 | phytotoxicity rating CORN (crop damage) ([11]; 63 g ai/ha): 0 | phytotoxicity rating CORN (crop damage) ([11]; 250 g ai/ha): 60 | phytotoxicity rating RICE (crop damage) ([12]; 63 g ai/ha): 10 | phytotoxicity rating RICE (crop damage) ([12]; 250 g ai/ha): 50 | CORN phytotoxicity rating (crop damage) ([13]; 63 g ai/ha): 10 | CORN phytotoxicity rating (crop damage) ([13]; 250 g ai/ha): 25 | RICE phytotoxicity rating (crop damage) ([14]; 63 g ai/ha): 20 | RICE phytotoxicity rating (crop damage) ([14]; 250 g ai/ha): 20 | phytotoxicity rating AMBEL ([15]; 63 g ai/ha): 10 | phytotoxicity rating AMBEL ([15]; 250 g ai/ha): 90 | phytotoxicity rating IPOHE ([16]; 63 g ai/ha): 30 | phytotoxicity rating IPOHE ([16]; 250 g ai/ha): 100 | phytotoxicity rating ECHCG ([17]; 63 g ai/ha): 0 | phytotoxicity rating ECHCG ([17]; 250 g ai/ha): 60 | phytotoxicity rating CASOB ([18]; 63 g ai/ha): 40 | phytotoxicity rating CASOB ([18]; 250 g ai/ha): 80 | phytotoxicity rating SORHA ([19]; 63 g ai/ha): 10 | phytotoxicity rating SORHA ([19]; 250 g ai/ha): 90 | phytotoxicity rating ABUTH ([20]; 63 g ai/ha): 100 | phytotoxicity rating ABUTH ([20]; 250 g ai/ha): 100 | phytotoxicity rating SETVI ([21]; 63 g ai/ha): 20 | phytotoxicity rating SETVI ([21]; 250 g ai/ha): 90 | phytotoxicity rating CHEAL ([22]; 63 g ai/ha): 80 | phytotoxicity rating CHEAL ([22]; 250 g ai/ha): 100 | phytotoxicity rating DIGSA ([23]; 63 g ai/ha): 20 | phytotoxicity rating DIGSA ([23]; 250 g ai/ha): 70

CC(C)Oc1c(Cl)cc(F)c(-n2c(=O)cc(C(F)(F)F)n(C)c2=O)c1NC(=O)c1ccc2ccccc2c1 [2-197]
phytotoxicity rating AMARE ([1]; 63 g ai/ha, rating scale 0-100 (0 no damage, 100 complete death)): 100 | phytotoxicity rating AMARE [1, 24]: 100 | phytotoxicity rating IPOHE ([2]; 63 g ai/ha): 100 | phytotoxicity rating IPOHE ([2]; 250 g ai/ha): 90 | phytotoxicity rating ECHCG ([3]; 63 g ai/ha): 0 | phytotoxicity rating ECHCG ([3]; 250 g ai/ha): 20 | phytotoxicity rating CASOB ([4]; 63 g ai/ha): 80 | phytotoxicity rating CASOB ([4]; 250 g ai/ha): 80 | phytotoxicity rating SORHA ([5]; 63 g ai/ha): 0 | phytotoxicity rating SORHA ([5]; 250 g ai/ha): 50 | phytotoxicity rating ABUTH ([6]; 63 g ai/ha): 100 | phytotoxicity rating ABUTH ([6]; 250 g ai/ha): 100 | phytotoxicity rating SETVI ([7]; 63 g ai/ha): 10 | phytotoxicity rating SETVI ([7]; 250 g ai/ha): 20 | phytotoxicity rating CHEAL ([8]; 63 g ai/ha): 100 | phytotoxicity rating CHEAL ([8]; 250 g ai/ha): 100 | phytotoxicity rating DIGSA ([9]; 63 g ai/ha): 10 | phytotoxicity rating DIGSA ([9]; 250 g ai/ha): 10 | Pre-emerge Herbicidal Activity AMARE ([10]; 63 g ai/ha): 100 | Pre-emerge Herbicidal Activity AMARE ([10]; 250 g ai/ha): 100 | Pre-emerge Herbicidal Activity CORN ([11]; 63 g ai/ha): 0 | Pre-emerge Herbicidal Activity CORN ([11]; 250 g ai/ha): 0 | Pre-emerge Herbicidal Activity RICE ([12]; 63 g ai/ha): 30 | Pre-emerge Herbicidal Activity RICE ([12]; 250 g ai/ha): 80 | phytotoxicity rating CORN (crop damage) ([13]; 63 g ai/ha): 10 | phytotoxicity rating CORN (crop damage) ([13]; 250 g ai/ha): 10 | phytotoxicity rating RICE (crop damage) ([14]; 63 g ai/ha): 20 | phytotoxicity rating RICE (crop damage) ([14]; 250 g ai/ha): 30 | Pre-emerge Herbicidal Activity AMBEL ([15]; 63 g ai/ha): 100 | Pre-emerge Herbicidal Activity AMBEL ([15]; 250 g ai/ha): 100 | Pre-emerge Herbicidal Activity IPOHE ([16]; 63 g ai/ha): 30 | Pre-emerge Herbicidal Activity IPOHE ([16]; 250 g ai/ha): 50 | Pre-emerge Herbicidal Activity ECHCG ([17]; 63 g ai/ha): 0 | Pre-emerge Herbicidal Activity ECHCG ([17]; 250 g ai/ha): 50 | Pre-emerge Herbicidal Activity CASOB ([18]; 63 g ai/ha): 0 | Pre-emerge Herbicidal Activity CASOB ([18]; 250 g ai/ha): 50 | Pre-emerge Herbicidal Activity SORHA ([19]; 63 g ai/ha): 0 | Pre-emerge Herbicidal Activity SORHA ([19]; 250 g ai/ha): 20 | Pre-emerge Herbicidal Activity ABUTH ([20]; 63 g ai/ha): 90 | Pre-emerge Herbicidal Activity ABUTH ([20]; 250 g ai/ha): 100 | Pre-emerge Herbicidal Activity SETVI ([21]; 63 g ai/ha): 50 | Pre-emerge Herbicidal Activity SETVI ([21]; 250 g ai/ha): 100 | Pre-emerge Herbicidal Activity CHEAL ([22]; 63 g ai/ha): 100 | Pre-emerge Herbicidal Activity CHEAL ([22]; 250 g ai/ha): 100 | Pre-emerge Herbicidal Activity DIGSA ([23]; 63 g ai/ha): 80 | Pre-emerge Herbicidal Activity DIGSA ([23]; 250 g ai/ha): 100
